The assay has as its target T1, SHP2 protein (Homo sapiens, UniProt Q06124).
T1 sequence (Q06124 1-593): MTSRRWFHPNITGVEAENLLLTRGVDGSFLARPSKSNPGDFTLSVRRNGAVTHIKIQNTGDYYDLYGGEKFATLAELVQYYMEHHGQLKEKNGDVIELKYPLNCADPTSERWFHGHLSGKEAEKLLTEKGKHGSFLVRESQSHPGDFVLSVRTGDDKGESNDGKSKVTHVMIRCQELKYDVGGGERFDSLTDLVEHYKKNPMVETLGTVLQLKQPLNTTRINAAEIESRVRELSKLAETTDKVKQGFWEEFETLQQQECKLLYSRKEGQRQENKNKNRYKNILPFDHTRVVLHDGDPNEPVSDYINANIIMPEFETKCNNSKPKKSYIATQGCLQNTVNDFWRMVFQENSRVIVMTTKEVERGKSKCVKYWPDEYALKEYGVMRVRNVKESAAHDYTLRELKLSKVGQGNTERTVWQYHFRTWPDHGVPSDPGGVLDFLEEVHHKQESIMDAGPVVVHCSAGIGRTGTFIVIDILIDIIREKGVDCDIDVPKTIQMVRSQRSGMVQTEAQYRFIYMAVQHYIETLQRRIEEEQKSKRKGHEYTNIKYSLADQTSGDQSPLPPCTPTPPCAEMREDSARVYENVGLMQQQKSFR
In words: Measurement of SHP2 protein degradation in MV-4-11 cells (western blotting). The class given is cell-based. Details: endogenous in cells. Conditions: harvested after 24 hours. A digest of the protocol: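 MV-4-11 cells in IMDM/5% FBS were exposed to compound at final 0.01, 0.1, 1 μM or 0.001, 0.01, 0.1 μM for 24 h, DMSO as negative control. BCA-normalised lysates were immunoblotted for SHP2 with GAPDH as loading control, read on LI-COR Odyssey.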

For `Cc1ncsc1-c1ccc(CNC(=O)[C@@H]2C[C@@H](O)CN2C(=O)[C@@H](NC(=O)C2(F)CC2)C(C)(C)C)c(OCCN2CCC(C(=O)N3CCC(Nc4cccc(Sc5cnc(N6CCC(C)(CN)CC6)cn5)c4Cl)CC3)CC2)c1` [Example 51, (2S,4R)—N-(2-(2-(4-(4-((3-((5-(4-(aminomethyl)-4-methylpiperidin-1-yl)pyrazin-2-yl)thio)-2-chlorophenyl)amino)piperidine-1-carbonyl)piperidin-1-yl)ethoxy)-4-(4-methylthiazol-5-yl)benzyl)-1-((S)-2-(1-fluorocyclopropane-1-carboxamido)-3,3-dimethylbutanoyl)-4-hydroxypyrrolidine-2-carboxamide], the SHP2% degradation is, setting by setting: (0.01 μM) 32.9%; (0.1 μM) 92.6%.
On the same counts, the results for `CC(=O)N[C@H](C(=O)N1C[C@H](O)C[C@H]1C(=O)NCc1ccc(-c2scnc2C)cc1OC1CCN(C(=O)C2CCN(c3nccc(Sc4cnc(N5CCC(C)(CN)CC5)cn4)c3Cl)CC2)CC1)C(C)(C)C` [Example 75, (2S,4R)-1-((S)-2-acetamido-3,3-dimethylbutanoyl)-N-(2-((1-(1-(4-((5-(4-(aminomethyl)-4-methylpiperidin-1-yl)pyrazin-2-yl)thio)-3-chloropyridin-2-yl)piperidine-4-carbonyl)piperidin-4-yl)oxy)-4-(4-methylthiazol-5-yl)benzyl)-4-hydroxypyrrolidine-2-carboxamide] are 97.0% and 99.3%.
Consider `Cc1ncsc1-c1ccc(CNC(=O)[C@@H]2C[C@@H](O)CN2C(=O)[C@@H](NC(=O)C2(F)CC2)C(C)(C)C)c(OCCN2CCN(C(=O)C3CN(c4nccc(Sc5cnc(N6CCC(C)(CN)CC6)cn5)c4Cl)C3)CC2)c1` [Example 53, (2S,4R)—N-(2-(2-(4-(1-(4-((5-(4-(aminomethyl)-4-methylpiperidin-1-yl)pyrazin-2-yl)thio)-3-chloropyridin-2-yl)azetidine-3-carbonyl)piperazin-1-yl)ethoxy)-4-(4-methylthiazol-5-yl)benzyl)-1-((S)-2-(1-fluorocyclopropane-1-carboxamido)-3,3-dimethylbutanoyl)-4-hydroxypyrrolidine-2-carboxamide], for which the SHP2% degradation is, setting by setting: (0.01 μM) 70.4%; (0.1 μM) 99.4%.
For `Cc1ncsc1-c1ccc(CNC(=O)[C@@H]2C[C@@H](O)CN2C(=O)[C@@H](NC(=O)C2(F)CC2)C(C)(C)C)c(O[C@H]2CC[C@H](C(=O)N3CC(CNc4cccc(Sc5cnc(N6CCC(C)(CN)CC6)cn5)c4Cl)C3)CC2)c1` [Example 18, (2S,4R)—N-(2-(((1R,4S)-4-(3-(((3-((5-(4-(aminomethyl)-4-methylpiperidin-1-yl)pyrazin-2-yl)thio)-2-chlorophenyl)amino)methyl)azetidine-1-carbonyl)cyclohexyl)oxy)-4-(4-methylthiazol-5-yl)benzyl)-1-((S)-2-(1-fluorocyclopropane-1-carboxamido)-3,3-dimethylbutanoyl)-4-hydroxypyrrolidine-2-carboxamide], in that order: 63.2% and 98.4%.
On the same counts, the results for `Cc1ncsc1-c1ccc(CNC(=O)[C@@H]2C[C@@H](O)CN2C(=O)[C@@H](NC(=O)C2(F)CC2)C(C)(C)C)c(OCCN2CCN(CCNc3cccc(Sc4cnc(N5CCC(C)(CN)CC5)cn4)c3Cl)CC2)c1` [Example 2, (2S,4R)—N-(2-(2-(4-(2-((3-((5-(4-(aminomethyl)-4-methylpiperidin-1-yl)pyrazin-2-yl)thio)-2-chlorophenyl)amino)ethyl)piperazin-1-yl)ethoxy)-4-(4-methylthiazol-5-yl)benzyl)-1-((S)-2-(1-fluorocyclopropane-1-carboxamido)-3,3-dimethylbutanoyl)-4-hydroxypyrrolidine-2-carboxamide] are 11.8% and 80.3%.
For `Cc1ncsc1-c1ccc(CNC(=O)[C@@H]2C[C@@H](O)CN2C(=O)[C@@H](NC(=O)C2(F)CC2)C(C)(C)C)c(O[C@H]2CC[C@H](C(=O)N3CCC(Nc4nccc(Sc5cnc(N6CCC(C)(N)CC6)cn5)c4Cl)CC3)CC2)c1` [Example 24, (2S,4R)—N-(2-(((1R,4S)-4-(4-((4-((5-(4-amino-4-methylpiperidin-1-yl)pyrazin-2-yl)thio)-3-chloropyridin-2-yl)amino)piperidine-1-carbonyl)cyclohexyl)oxy)-4-(4-methylthiazol-5-yl)benzyl)-1-((S)-2-(1-fluorocyclopropane-1-carboxamido)-3,3-dimethylbutanoyl)-4-hydroxypyrrolidine-2-carboxamide], in that order: 83.1% and 100.0%.
On to `Cc1ncsc1-c1ccc(CNC(=O)[C@@H]2C[C@@H](O)CN2C(=O)[C@@H](NC(=O)C2(F)CC2)C(C)(C)C)c(OC2CCN(C(=O)[C@H]3C[C@@H](Nc4nccc(Sc5cnc(N6CCC(C)(N)CC6)cn5)c4Cl)C3)CC2)c1` [Example 60, (2S,4R)—N-(2-((1-((1S,3R)-3-((4-((5-(4-amino-4-methylpiperidin-1-yl)pyrazin-2-yl)thio)-3-chloropyridin-2-yl)amino)cyclobutanecarbonyl)piperidin-4-yl)oxy)-4-(4-methylthiazol-5-yl)benzyl)-1-((S)-2-(1-fluorocyclopropane-1-carboxamido)-3,3-dimethylbutanoyl)-4-hydroxypyrrolidine-2-carboxamide], for which the SHP2% degradation came out at 81.5% (0.01 μM) and 99.3% (0.1 μM).
On to `Cc1ncsc1-c1ccc(CNC(=O)[C@@H]2C[C@@H](O)CN2C(=O)[C@@H](NC(=O)C2(F)CC2)C(C)(C)C)c(O[C@H]2CC[C@H](C(=O)N3CCC(CNc4cccc(Sc5cnc(N6CCC(C)(CN)CC6)cn5)c4Cl)CC3)CC2)c1` [Example 19, (2S,4R)—N-(2-(((1R,4S)-4-(4-(((3-((5-(4-(aminomethyl)-4-methylpiperidin-1-yl)pyrazin-2-yl)thio)-2-chlorophenyl)amino)methyl)piperidine-1-carbonyl)cyclohexyl)oxy)-4-(4-methylthiazol-5-yl)benzyl)-1-((S)-2-(1-fluorocyclopropane-1-carboxamido)-3,3-dimethylbutanoyl)-4-hydroxypyrrolidine-2-carboxamide], for which the SHP2% degradation was 50.4% (0.01 μM) and 95.7% (0.1 μM).
For `Cc1ncsc1-c1ccc(CNC(=O)[C@@H]2C[C@@H](O)CN2C(=O)[C@@H](NC(=O)C2(F)CC2)C(C)(C)C)c(O[C@H]2CC[C@H](C(=O)N3CC(Nc4cccc(Sc5cnc(N6CCC7(CC6)CO[C@@H](C)[C@H]7N)cn5)c4Cl)C3)CC2)c1` [Example 13, (2S,4R)—N-(2-(((1R,4S)-4-(3-((3-((5-((3S,4S)-4-amino-3-methyl-2-oxa-8-azaspiro[4.5]decan-8-yl)pyrazin-2-yl)thio)-2-chlorophenyl)amino)azetidine-1-carbonyl)cyclohexyl)oxy)-4-(4-methylthiazol-5-yl)benzyl)-1-((S)-2-(1-fluorocyclopropane-1-carboxamido)-3,3-dimethylbutanoyl)-4-hydroxypyrrolidine-2-carboxamide], in that order: 93.8% and 99.5%.
For `CC(=O)N[C@H](C(=O)N1C[C@H](O)C[C@H]1C(=O)NCc1ccc(-c2scnc2C)cc1OC1CCN(C(=O)[C@H]2C[C@@H](Nc3nccc(Sc4cnc(N5CCC(C)(CN)CC5)cn4)c3Cl)C2)CC1)C(C)(C)C` [Example 74, (2S,4R)-1-((S)-2-acetamido-3,3-dimethylbutanoyl)-N-(2-((1-((1S,3R)-3-((4-((5-(4-(aminomethyl)-4-methylpiperidin-1-yl)pyrazin-2-yl)thio)-3-chloropyridin-2-yl)amino)cyclobutanecarbonyl)piperidin-4-yl)oxy)-4-(4-methylthiazol-5-yl)benzyl)-4-hydroxypyrrolidine-2-carboxamide], in that order: 97.0% and 99.8%.
On the same counts, the results for `Cc1ncsc1-c1ccc(CNC(=O)[C@@H]2C[C@@H](O)CN2C(=O)[C@@H](NC(=O)C2(F)CC2)C(C)(C)C)c(OC2CCN(C(=O)C3CCN(c4nccc(Sc5cnc(N6CCC(C)(CN)CC6)cn5)c4Cl)CC3)CC2)c1` [Example 65, (2S,4R)—N-(2-((1-(1-(4-((5-(4-(aminomethyl)-4-methylpiperidin-1-yl)pyrazin-2-yl)thio)-3-chloropyridin-2-yl)piperidine-4-carbonyl)piperidin-4-yl)oxy)-4-(4-methylthiazol-5-yl)benzyl)-1-((S)-2-(1-fluorocyclopropane-1-carboxamido)-3,3-dimethylbutanoyl)-4-hydroxypyrrolidine-2-carboxamide] are 85.2% and 98.1%.

(Values after patent publication US20260144788A1, “COMPOUND FOR SHP2 PROTEIN DEGRADATION AND MEDICAL USES THEREOF” (UBIX THERAPEUTICS, INC., priority 2022, published 2026).)
